Measured values taken from patent publication US20250152592A1, “PHARMACEUTICAL COMPOSITION COMPRISING ALLOPURINOL, FEBUXOSTAT OR PHARMACEUTICALLY ACCEPTABLE SALT THEREOF FOR PREVENTION OR TREATMENT OF CHRONIC KIDNEY DISEASE IN SUBJECT HAVING HIGH SERUM URIC ACID CONCENTRATION” (Indream Healthcare Inc., priority 2022, published 2025).

Columns and labels:
[1] = system: patients with gout and a history of major cardiovascular diseases; test: eGFR over time by average serum uric acid concentration, analysis of clinical trial data; type: in vivo, human; details: febuxostat group
Procedure: (§1) In order to evaluate non-inferiority of febuxostat to allopurinol related to cardiovascular risk, a clinical trial was designed and proceeded.
(§2) A multicenter, randomized, double-blind non-inferiority trial was performed. The details of the clinical trial design have been published previously. An independent data and safety monitoring committee with access to unblinded data monitored the clinical trial. The statistical analysis for the data and the safety monitoring committee was performed by an independent statistical group (WebbWrites).
(§3) The patients were regarded as having a history of major cardiovascular diseases, if they had myocardial infarction, hospitalization for unstable angina, stroke, hospitalization for transient ischemic attack, peripheral vascular disease, or diabetes mellitus symptoms. All participants provided a prior informed consent form.
(§4) The patients were randomly assigned so that they received febuxostat or allopurinol administered once a day in a double-blind manner. The randomization was stratified according to the estimated creatinine clearance at baseline (patient group having an estimated creatinine clearance ≥60 ml per minute vs patient group having an estimated creatinine clearance ≥30 and <60 ml per minute).
(§5) The dose of allopurinol was modified according to a kidney function. The patients with the estimated creatinine clearance 60 ml or more per minute i) initially received allopurinol at a dose of 300 mg once a day, and the dose was increased in 100 mg increments monthly until the patient had the serum uric acid concentration of less than 6.0 mg per deciliter or the dosage of allopurinol was 600 mg once a day. The patient having the estimated creatinine clearance of 30 ml or more and less than 60 ml per minute initially received 200 mg of allopurinol, and then the dose was increased in 100 mg increments until the patient either had the serum uric acid concentration of less than 6.0 mg per deciliter or was receiving the allopurinol dose of 400 mg once daily.
(§6) The dose of febuxostat was not modified according to the kidney function. The patients who were randomly assigned to receive febuxostat initially received 40 mg once a daily, and continued to receive the same dosage if the serum uric acid concentration was less than 6.0 mg per deciliter after 2 weeks of the treatment. If the serum uric acid concentration was higher than 6.0 mg per deciliter at 2nd week visit, the dose of febuxostat was increased to 80 mg once daily for the remainder of the trial.
(§7) During the period, the administration of a double-blind and double-dummy trial medications was guided by an interactive voice-response system which was a procedure to prevent unblinding for the patients whose dose was not adjusted. After completing dose adjustment, the urate level was concealed from the investigators, and the treatment was managed throughout the trial using the interactive voice-response system.
(§8) Outpatient visits were conducted according to the following schedule: during screening and randomization, and at 2, 4, 6, 8, 10, 12, and 24 weeks after the randomization, and every 6 months during the subsequent years of the trial. The patients with reduced kidney function or, the patients aged 65 years or older at randomization were visited at 9 and 15 months for monitoring the serum chemical profile. If the patient agreed to be monitored, but would not return for study visit, telephone contact was made, but such method was not preferred or recommended.
In order to confirm the effect of allopurinol and febuxostat on the kidney disease, the data obtained in the clinical trial described above was analyzed.

[2] = post-marketing study, Arthritis Research & Therapy volume 21, Article number: 229 (2019); cited from earlier work
[3] = system: patients with gout and a history of major cardiovascular diseases; test: clinical trial febuxostat vs allopurinol: serum uric acid, gout flare, treatment discontinuation; type: in vivo, human
Procedure: as §1, §2, §3, §4, §5, §6, §7, §8

Cc1nc(-c2ccc(OCC(C)C)c(C#N)c2)sc1C(=O)O [febuxostat]
eGFR Mean (95% CI) ([1]; DBP <80, Average UA <6, Month 18): 63.11 (61.75-64.47) ml/min/1.73 m^2 | eGFR Mean (95% CI) ([1]; DBP <80, Average UA <6, Month 24): 63.79 (62.31-65.27) ml/min/1.73 m^2 | eGFR Mean (95% CI) ([1]; DBP <80, Average UA <6, Month 30): 63.51 (61.89-65.13) ml/min/1.73 m^2 | eGFR Mean (95% CI) ([1]; DBP <80, Average UA <6, Month 36): 64.28 (62.56-66.00) ml/min/1.73 m^2 | eGFR Mean (95% CI) ([1]; DBP <80, Average UA <6, Month 42): 64.43 (62.50-66.35) ml/min/1.73 m^2 | eGFR Mean (95% CI) ([1]; DBP <80, Average UA <6, Month 48): 65.60 (63.48-67.72) ml/min/1.73 m^2 | eGFR Mean (95% CI) ([1]; DBP <80, Average UA <6, Month 54): 65.70 (63.39-68.00) ml/min/1.73 m^2 | eGFR Mean (95% CI) ([1]; DBP <80, Average UA <6, Month 60): 66.92 (64.25-69.59) ml/min/1.73 m^2 | eGFR Mean (95% CI) ([1]; DBP <80, Average UA <6, Week 2): 62.06 (60.81-63.31) ml/min/1.73 m^2 | eGFR Mean (95% CI) ([1]; DBP <80, Average UA ≥6, Baseline): 62.08 (59.70-64.45) ml/min/1.73 m^2 | eGFR Mean (95% CI) ([1]; DBP <80, Average UA ≥6, Month 3): 61.44 (58.99-63.89) ml/min/1.73 m^2 | eGFR Mean (95% CI) ([1]; DBP <80, Average UA ≥6, Month 6): 61.49 (59.02-63.95) ml/min/1.73 m^2 | eGFR Mean (95% CI) ([1]; DBP <80, Average UA ≥6, Month 12): 60.74 (58.06-63.41) ml/min/1.73 m^2 | eGFR Mean (95% CI) ([1]; DBP <80, Average UA ≥6, Month 18): 60.18 (57.20-63.15) ml/min/1.73 m^2 | eGFR Mean (95% CI) ([1]; DBP <80, Average UA ≥6, Month 24): 60.32 (57.11-63.53) ml/min/1.73 m^2 | eGFR Mean (95% CI) ([1]; DBP <80, Average UA ≥6, Month 30): 59.54 (55.89-63.19) ml/min/1.73 m^2 | eGFR Mean (95% CI) ([1]; DBP <80, Average UA ≥6, Month 36): 60.26 (56.16-64.37) ml/min/1.73 m^2 | eGFR Mean (95% CI) ([1]; DBP <80, Average UA ≥6, Month 42): 59.55 (55.09-64.02) ml/min/1.73 m^2 | eGFR Mean (95% CI) ([1]; DBP <80, Average UA ≥6, Month 48): 59.84 (55.23-64.46) ml/min/1.73 m^2 | eGFR Mean (95% CI) ([1]; DBP <80, Average UA ≥6, Month 54): 60.35 (55.08-65.62) ml/min/1.73 m^2 | eGFR Mean (95% CI) ([1]; DBP <80, Average UA ≥6, Month 60): 60.01 (53.34-66.68) ml/min/1.73 m^2 | eGFR Mean (95% CI) ([1]; DBP <80, Average UA ≥6, Week 2): 62.00 (59.39-64.62) ml/min/1.73 m^2 | eGFR Mean (95% CI) ([1]; SBP <130, Average UA <6, Baseline): 64.76 (63.32-66.20) ml/min/1.73 m^2 | eGFR Mean (95% CI) ([1]; SBP <130, Average UA <6, Month 3): 64.67 (63.21-66.12) ml/min/1.73 m^2 | eGFR Mean (95% CI) ([1]; SBP <130, Average UA <6, Month 6): 64.87 (63.38-66.36) ml/min/1.73 m^2 | eGFR Mean (95% CI) ([1]; SBP <130, Average UA <6, Month 12): 66.06 (64.55-67.57) ml/min/1.73 m^2 | eGFR Mean (95% CI) ([1]; SBP <130, Average UA <6, Month 18): 66.18 (64.56-67.79) ml/min/1.73 m^2 | eGFR Mean (95% CI) ([1]; SBP <130, Average UA <6, Month 24): 66.12 (64.42-67.83) ml/min/1.73 m^2 | eGFR Mean (95% CI) ([1]; SBP <130, Average UA <6, Month 30): 66.59 (64.74-68.44) ml/min/1.73 m^2 | eGFR Mean (95% CI) ([1]; SBP <130, Average UA <6, Month 36): 67.47 (65.55-69.39) ml/min/1.73 m^2 | eGFR Mean (95% CI) ([1]; SBP <130, Average UA <6, Month 42): 66.93 (64.77-69.08) ml/min/1.73 m^2 | eGFR Mean (95% CI) ([1]; SBP <130, Average UA <6, Month 48): 68.21 (65.88-70.54) ml/min/1.73 m^2 | eGFR Mean (95% CI) ([1]; SBP <130, Average UA <6, Month 54): 68.62 (66.03-71.22) ml/min/1.73 m^2 | eGFR Mean (95% CI) ([1]; SBP <130, Average UA <6, Month 60): 69.36 (66.42-72.30) ml/min/1.73 m^2 | eGFR Mean (95% CI) ([1]; SBP <130, Average UA <6, Week 2): 65.16 (63.69-66.63) ml/min/1.73 m^2 | eGFR Mean (95% CI) ([1]; SBP <130, Average UA ≥6, Baseline): 65.83 (63.23-68.44) ml/min/1.73 m^2 | eGFR Mean (95% CI) ([1]; SBP <130, Average UA ≥6, Month 3): 65.54 (62.88-68.20) ml/min/1.73 m^2 | eGFR Mean (95% CI) ([1]; SBP <130, Average UA ≥6, Month 6): 65.87 (63.30-68.43) ml/min/1.73 m^2 | eGFR Mean (95% CI) ([1]; SBP <130, Average UA ≥6, Month 12): 65.19 (62.39-67.99) ml/min/1.73 m^2 | eGFR Mean (95% CI) ([1]; SBP <130, Average UA ≥6, Month 18): 63.60 (60.49-66.71) ml/min/1.73 m^2 | eGFR Mean (95% CI) ([1]; SBP <130, Average UA ≥6, Month 24): 62.90 (59.50-66.30) ml/min/1.73 m^2 | eGFR Mean (95% CI) ([1]; SBP <130, Average UA ≥6, Month 30): 62.62 (58.76-66.48) ml/min/1.73 m^2 | eGFR Mean (95% CI) ([1]; SBP <130, Average UA ≥6, Month 36): 65.24 (60.84-69.64) ml/min/1.73 m^2 | eGFR Mean (95% CI) ([1]; SBP <130, Average UA ≥6, Month 42): 65.47 (60.56-70.39) ml/min/1.73 m^2 | eGFR Mean (95% CI) ([1]; SBP <130, Average UA ≥6, Month 48): 64.82 (59.40-70.23) ml/min/1.73 m^2 | eGFR Mean (95% CI) ([1]; SBP <130, Average UA ≥6, Month 54): 65.92 (59.74-72.11) ml/min/1.73 m^2 | eGFR Mean (95% CI) ([1]; SBP <130, Average UA ≥6, Month 60): 64.71 (57.42-72.01) ml/min/1.73 m^2 | eGFR Mean (95% CI) ([1]; SBP <130, Average UA ≥6, Week 2): 65.59 (62.82-68.36) ml/min/1.73 m^2 | acute renal failure reported more often [2]: 5.7 times | proportion of patients with maintenance of serum uric acid concentration at less than 6.0 mg per deciliter ([3]; after 2nd week, at most times, febuxostat group vs allopurinol group): a higher proportion of the patients in the febuxostat group | proportion of patients with serum uric acid concentration of less than 6.0 mg per deciliter ([3]; at the 2nd week, febuxostat group vs allopurinol group): higher in the febuxostat group than in the allopurinol group | proportion of patients with serum uric acid concentration of less than 5.0 mg per deciliter ([3]; entire trial, febuxostat group vs allopurinol group): a larger proportion of the patients in the febuxostat group than in the allopurinol group | rate of gout flare ([3]; overall, during the trial): 0.68 per patient-year
